Values belong to the compound of their own block, whether it stands above or below them.
What was measured:
[1] = tested on: iNOS; experiment: Suppression of iNOS mRNA induction, qPCR; format: cell-based, mouse; conditions: RAW264.7; 2 h pre-treatment, 10 ng/ml IFNγ for 2 hours
Procedure: (§1) FIG. 35. Suppression of iNOS mRNA induction. RAW264.7 mouse macrophages were pre-treated for 2 hours with compounds at the indicated concentrations and subsequently stimulated with 10 ng/ml IFNγ for an additional 2 hours. mRNA levels of iNOS were quantified by qPCR and are shown relative to the vehicle-treated IFNγ-stimulated sample which was normalized to a value of 1. Values are averages of duplicate PCR reactions, each with triplicate wells.
as §1, with “36.” for “35.”
as §1, with “37.” for “35.”
as §1, with “RAW264.7” for “FIG. 35. Suppression of iNOS mRNA induction. RAW264.7”, “macrophage cells” for “macrophages”

[2] = tested on: HO-1; experiment: Nrf2 target gene induction in MDA-MB-435 cells, qPCR: HO-1; format: cell-based, human; conditions: 16 hours
Procedure: FIG. 43. Induction of HO-1. FIGS. 43A and 43B: MDA-MB-435 human melanoma cells were treated with vehicle (DMSO) or the indicated compounds and concentrations for 16 hours. HO-1 mRNA levels were quantified using qPCR and were normalized relative to a DMSO-treated sample run in parallel. Values are averages of duplicate wells. FIG. 43C: MDA-MB-435 cells were treated with vehicle (DMSO) or the indicated compounds at 400 nM for 16 hours. HO-1, TrxR1 and actin protein levels were assayed by immunoblotting. Actin served as a loading control.
(§2) FIGS. 44, 46 and 47—Induction of HO-1, TrxR1 and γ-GCS. FIGS. 44A-C, 46A-C, 47A-C: MDA-MB-435 human melanoma cells were treated with vehicle (DMSO) or the indicated compounds (400 nM) for 16 hours. HO-1, thioredoxin reductase-1 (TrxR1), and γ-glutamylcysteine synthetase (γ-GCS) mRNA levels were quantified using qPCR and were normalized relative to a DMSO-treated sample run in parallel. Values are averages of duplicate wells. FIGS. 44D, 46D, 47D: MDA-MB-435 cells were treated with vehicle (DMSO) or the indicated compounds at 400 nM for 16 hours. HO-1, TrxR1 and actin protein levels were assayed by immunoblotting.
(§3) FIG. 45. Induction of HO-1, TrxR1 and γ-GCS. FIGS. 45 A-C: MDA-MB-435 cells were treated with vehicle (DMSO) or the indicated compounds at 160 nM for 16 hours. HO-1, TrxR1, and γ-GCS mRNA levels were quantified by qPCR and were normalized relative to a DMSO-treated sample run in parallel. Values are averages of duplicate wells. FIGS. 44D, 46D, 47D: MDA-MB-435 cells were treated with vehicle (DMSO) or the indicated compounds at 160 nM for 16 hours. HO-1, TrxR1 and actin protein levels were assayed by immunoblotting.
(§4) MDA-MB-435 human melanoma cells were treated with vehicle (DMSO) or the indicated compounds and concentrations for 16 hours. HO-1, thioredoxin reductase-1 (TrxR1), γ-glutamylcysteine synthetase (γ-GCS), and ferritin heavy chain mRNA levels were quantified using qPCR and were normalized relative to a DMSO-treated sample run in parallel. Values are averages of duplicate wells. Primer sequences are as follows.

[3] = tested on: γ-GCS; experiment: Nrf2 target gene induction in MDA-MB-435 cells, qPCR: γ-GCS; format: cell-based, human; conditions: 160 nM, 16 hours
Procedure: as §2, §3, §4

[4] = tested on: RAW264.7 macrophages; experiment: Cell viability, WST-1 reagent; format: cell-based, mouse; conditions: Mus musculus, 2 h pre-treatment, then 20 ng/ml IFNγ for 24 hours
Procedure: (§5) FIGS. 1-34. Inhibition of NO Production. RAW264.7 macrophages were pre-treated with DMSO or drugs at various concentrations (nM) for 2 hours, then treated with 20 ng/ml IFNγ for 24 hours. NO concentration in media was determined using the Griess reagent system; cell viability was determined using WST-1 reagent. FIGS. 49-52. Inhibition of NO Production. RAW264.7 macrophages were pre-treated with DMSO or drugs at various concentrations (nM) for 2 hours, then treated with 20 ng/ml IFNγ for 24 hours. NO concentration in media was determined using the Griess reagent system; cell viability was determined using WST-1 reagent. RAW264.7 macrophages were pre-treated with DMSO or drugs for 2 hours, then treated with recombinant mouse IFNγ (Sigma) for 24 hours. NO concentration in media was determined using the Griess reagent system (Promega). Cell viability was determined using WST-1 reagent (Roche).

[5] = tested on: TrxR1; experiment: Nrf2 target gene induction in MDA-MB-435 cells, qPCR: TrxR1; format: cell-based, human; conditions: 16 hours
Procedure: as §2, §3, §4

[6] = tested on: iNOS; experiment: iNOS Western blot in RAW264.7 mouse macrophages; format: cell-based; conditions: compounds at 300 nM for 2 hours, 24 hour induction by IFNγ, read-out: iNOS suppr. WB
Procedure: FIGS. 38-40. iNOS Western Blot in RAW264.7 mouse macrophages. Cells were pretreated by compounds at 300 nM for 2 hours, followed by 24 hour induction by IFNγ (20 ng/ml). […]

[7] = tested on: IFNγ-induced NO production in RAW264.7 macrophages; experiment: Suppression of IFNγ-induced NO production (Griess reagent); format: cell-based, mouse; conditions: Mus musculus, 2 h pre-treatment, then 20 ng/ml IFNγ for 24 hours
Procedure: as §5

IC50 [7]: 3.6 nM
Structure (SMILES): CC1(C)CC[C@]2(N)CC[C@]3(C)[C@H](C(=O)C=C4[C@@]5(C)C=C(C#N)C(=O)C(C)(C)[C@@H]5CC[C@]43C)[C@@H]2C1 [Compound 63169, (4aR,6aS,6bR,8aS,12aS,12bR,14bS)-8a-amino-4,4,6a,6b,11,11,14b-heptamethyl-3,13-dioxo-3,4,4a,5,6,6a,6b,7,8,8a,9,10,11,12,12a,12b,13,14b-octadecahydropicene-2-carbonitrile]
iNOS suppr. qPCR [1]: ~50% | HO-1 induction ([2]; 160 nM): 2% of induction observed for RTA 402 | γ-GCS induction [3]: 73% of induction observed for RTA 402 | IC50 [4]: > 200 nM | TrxR1 induction ([5]; 160 nM): 129% of induction observed for RTA 402 | inhibition at 0.3 µM [6]: ~90%

IC50 [7]: 1.5 nM
Structure (SMILES): CCS(=O)(=O)N[C@]12CCC(C)(C)C[C@H]1[C@H]1C(=O)C=C3[C@@]4(C)C=C(C#N)C(=O)C(C)(C)[C@@H]4CC[C@@]3(C)[C@]1(C)CC2 [Compound 63193, N-((4aS,6aR,6bS,8aR,12aS,14aR,14bS)-11-cyano-2,2,6a,6b,9,9,12a-heptamethyl-10,14-dioxo-1,2,3,4,4a,5,6,6a,6b,7,8,8a,9,10,12a,14,14a,14b-octadecahydropicen-4a-yl)ethanesulfonamide]
iNOS suppr. qPCR [1]: ~65% | HO-1 induction ([2]; 160 nM): 6% of induction observed for RTA 402 | γ-GCS induction [3]: 55% of induction observed for RTA 402 | IC50 [4]: > 200 nM | TrxR1 induction ([5]; 160 nM): 86% of induction observed for RTA 402 | inhibition at 0.3 µM [6]: > 90%

IC50 [7]: 4 nM
Structure (SMILES): C=CC(=O)N[C@]12CCC(C)(C)C[C@H]1[C@H]1C(=O)C=C3[C@@]4(C)C=C(C#N)C(=O)C(C)(C)[C@@H]4CC[C@@]3(C)[C@]1(C)CC2 [Compound 63183, N-((4aS,6aR,6bS,8aR,12aS,14aR,14bS)-11-cyano-2,2,6a,6b,9,9,12a-heptamethyl-10,14-dioxo-1,2,3,4,4a,5,6,6a,6b,7,8,8a,9,10,12a,14,14a,14b-octadecahydropicen-4a-yl)acrylamide]
iNOS suppr. qPCR [1]: 50% | HO-1 induction ([2]; 160 nM): 28% of induction observed for RTA 402 | γ-GCS induction [3]: 55% of induction observed for RTA 402 | IC50 [4]: 150 nM | TrxR1 induction ([5]; 160 nM): 71% of induction observed for RTA 402 | inhibition at 0.3 µM [6]: ~90%

IC50 [7]: 2 nM
Structure (SMILES): CC1(C)CC[C@]2(NS(C)(=O)=O)CC[C@]3(C)[C@H](C(=O)C=C4[C@@]5(C)C=C(C#N)C(=O)C(C)(C)[C@@H]5CC[C@]43C)[C@@H]2C1 [Compound 63175, N-((4aS,6aR,6bS,8aR,12aS,14aR,14bS)-11-cyano-2,2,6a,6b,9,9,12a-heptamethyl-10,14-dioxo-1,2,3,4,4a,5,6,6a,6b,7,8,8a,9,10,12a,14,14a,14b-octadecahydropicen-4a-yl)methanesulfonamide]
iNOS suppr. qPCR [1]: ~65% | HO-1 induction ([2]; 160 nM): 15% of induction observed for RTA 402 | HO-1 induction ([2]; 400 nM): 10% of induction observed for RTA 402 | γ-GCS induction [3]: 64% of induction observed for RTA 402 | IC50 [4]: 200 nM | TrxR1 induction ([5]; 160 nM): 86% of induction observed for RTA 402 | TrxR1 induction ([5]; 400 nM): 48% of induction observed for RTA 402 | inhibition at 0.3 µM [6]: ~90%

IC50 [7]: 91 nM
Structure (SMILES): CC1(C)CC[C@]2(NC(=O)N3CCC(O)CC3)CC[C@]3(C)[C@H](C(=O)C=C4[C@@]5(C)C=C(C#N)C(=O)C(C)(C)[C@@H]5CC[C@]43C)[C@@H]2C1 [Compound 63185, N-((4aS,6aR,6bS,8aR,12aS,14aR,14bS)-11-cyano-2,2,6a,6b,9,9,12a-heptamethyl-10,14-dioxo-1,2,3,4,4a,5,6,6a,6b,7,8,8a,9,10,12a,14,14a,14b-octadecahydropicen-4a-yl)-4-hydroxypiperidine-1-carboxamide]
iNOS suppr. qPCR [1]: 0% | HO-1 induction ([2]; 160 nM): 1% of induction observed for RTA 402 | γ-GCS induction [3]: 27% of induction observed for RTA 402 | IC50 [4]: > 200 nM | TrxR1 induction ([5]; 160 nM): 71% of induction observed for RTA 402 | inhibition at 0.3 µM [6]: 0%

IC50 [7]: 2.8 nM
Structure (SMILES): CC1(C)CC[C@]2(NS(=O)(=O)c3ccccc3)CC[C@]3(C)[C@H](C(=O)C=C4[C@@]5(C)C=C(C#N)C(=O)C(C)(C)[C@@H]5CC[C@]43C)[C@@H]2C1 [Compound 63192, N-((4aS,6aR,6bS,8aR,12aS,14aR,14bS)-11-cyano-2,2,6a,6b,9,9,12a-heptamethyl-10,14-dioxo-1,2,3,4,4a,5,6,6a,6b,7,8,8a,9,10,12a,14,14a,14b-octadecahydropicen-4a-yl)benzenesulfonamide]
iNOS suppr. qPCR [1]: ~60% | HO-1 induction ([2]; 160 nM): 1% of induction observed for RTA 402 | γ-GCS induction [3]: 9% of induction observed for RTA 402 | IC50 [4]: 150 nM | TrxR1 induction ([5]; 160 nM): 14% of induction observed for RTA 402 | inhibition at 0.3 µM [6]: > 90%

IC50 [7]: 2 nM
Structure (SMILES): COC(=O)N[C@]12CCC(C)(C)C[C@H]1[C@H]1C(=O)C=C3[C@@]4(C)C=C(C#N)C(=O)C(C)(C)[C@@H]4CC[C@@]3(C)[C@]1(C)CC2 [Compound 63167, methyl-(4aS,6aR,6bS,8aR,12aS,14aR,14bS)-11-cyano-2,2,6a,6b,9,9,12a-heptamethyl-10,14-dioxo-1,2,3,4,4a,5,6,6a,6b,7,8,8a,9,10,12a,14,14a,14b-octadecahydropicen-4a-ylcarbamate]
iNOS suppr. qPCR [1]: ~50% | HO-1 induction ([2]; 400 nM): 61% of induction observed for RTA 402 | IC50 [4]: 180 nM | TrxR1 induction ([5]; 400 nM): 62% of induction observed for RTA 402 | inhibition at 0.3 µM [6]: ~90%

IC50 [7]: 2.9 nM
Structure (SMILES): CC1(C)CC[C@]2(NS(=O)(=O)C3CC3)CC[C@]3(C)[C@H](C(=O)C=C4[C@@]5(C)C=C(C#N)C(=O)C(C)(C)[C@@H]5CC[C@]43C)[C@@H]2C1 [Compound 63243, N-((4aS,6aR,6bS,8aR,12aS,14aR,14bS)-11-cyano-2,2,6a,6b,9,9,12a-heptamethyl-10,14-dioxo-1,2,3,4,4a,5,6,6a,6b,7,8,8a,9,10,12a,14,14a,14b-octadecahydropicen-4a-yl)cyclopropanesulfonamide]
iNOS suppr. qPCR [1]: 50% | HO-1 induction ([2]; 160 nM): 25% of induction observed for RTA 402 | γ-GCS induction [3]: 36% of induction observed for RTA 402 | IC50 [4]: 150 nM | TrxR1 induction ([5]; 160 nM): 57% of induction observed for RTA 402 | inhibition at 0.3 µM [6]: ~90%

Source: patent US9670147B2, “Antioxidant inflammation modulators: oleanolic acid derivatives with amino and other modifications at C-17” (REATA PHARMACEUTICALS, INC., priority 2008, dated 2017)
